# Measured values: patent US5770625A, “Butyryl-tyrosinyl spermine, analogs thereof and methods of preparing and using same” (priority 1994, dated 1998)
# Where two headings read alike, the source gives them in different places.
# Tested on: postsynaptic QUIS-R of locust leg muscle
# Test: Antagonism of neurally-evoked twitch contraction of locust retractor unguis nerve-muscle preparation
# Design: species or system Schistocerca gregaria
# Details: for IC50: read-out: IC50
# Source text: Electrophysiological studies. The metathoracic retractor unguis nerve-muscle preparation of the locust Schistocerca gregaria was dissected and mounted in a small Perspex bath as described previously (21). The pharmacological activity on the locust nerve muscle preparation, using reduction in neurally evoked twitch amplitude as the measure of activity. Ten fractions were pharmacologically active. […] Further purification of this fraction by reverse-phase HPLC gave four peaks (FIG. 2B), the most pharmacologically was in the major peak (hatched FIG. 2B) . This fraction gave 1.1 mg of toxin as amorphous powder.
# The retractor unguis muscle and its nerve were dissected from the metathoracic legs of adult, female locusts (Schistocerca gregaria) and mounted in a Perspex perfusion chamber as described by Usherwood and Machili (21) and Bateman, et al. (14). The muscle was stretched to maximal body length and attached at its tendon or apodeme to a Grass FT 10-strain gauge by a short length of nylon thread. The volume of the muscle bath was about 0.5 ml and its contents could be exchanged within 1 sec. The preparation was perfused continuously at the rate of 5-10 ml min^-1 (except during the application of toxin (see below)) with standard locust saline of the following composition (mM): NaCl, 180; KCl, 10; CaCl2, 2; Hepes, 10; buffered to pH 6.8. The retractor unguis muscle is innervated by two excitatory motoneurons (30) and an inhibitory motoneuron (19,32), but the influence of the latter on the responsiveness of the muscle is slight. Maximal stimulation of the retractor unguis nerve at 0.2 Hz produced a series of twitch contractions of constant amplitude, which were maintained for many hours in good preparations. The test compounds were kept at -20° C. They were dissolved in locust saline on the day of the assay and tested at room temperature. The compounds were applied by pipette to a nerve-muscle preparation such that the contents of the perfusion bath were completely replaced by the test solution. Exposure to the test compound lasted 20 min. Because of the limited availability of some of the compounds, the preparation was not perfused during this period. However, the amplitude of the retractor unguis muscle twitch rarely changed by more than 5-10% over a 20 minute period. During application of the test solutions the stimulation frequency was raised to 0.6 Hz for brief periods to test for stimulus frequency-dependent effects on twitch amplitude (31,37). Dose-inhibition data were obtained by testing the effects, on single retractor unguis muscle preparations, of a range of concentrations of the test compounds. Each concentration of the respective samples was tested at least thee times, and each compound was assayed usually over a 100-fold concentration range (a total of 7-10 concentrations). The standard deviations for twitch inhibition for any given concentration of a toxin rarely exceed 10%. Those compounds for which the deviation was greater than this are identified in Tables 1-7. There was some variation in the potency of PhTX-343 and the test compounds between nerve-muscle preparations. In order to compensate for this, the following procedure was adopted: PhTX-343 was assayed at a variety of concentrations on eight retractor unguis nerve-muscle preparations to give a cumulative dose-inhibition relationship for this toxin. The concentration of PhTX-343 which reduced the twitch contraction by 50% (IC50) was then determined by fitting a curve to the data using the following equation: [formula] where: [T]= toxin concentration, I= % inhibition, Imax =maximum inhibition= 100% and n' represents the Hill slope coefficient. […] The ratio of the actual reduction in twitch amplitude obtained with this single concentration of PhTX-343 and the 50% reduction that was anticipated from the cumulative dose-inhibition relationship for this toxin, was then used as a factor to normalize the data for the test compound. […]
# [1] = Table 3, region C modifications
# [2] = Table 3, relative to PhTX-343 = 1.0
# [3] = Table 6, bis analogues of PhTX-343
Compound,potency compared with PhTX-343 or other analogues (in words),also measured
NCCCNCCCCNCCCNC(=O)[C@H](Cc1ccc(O)cc1)NC(=O)CCCNc1ccc([N+](=O)[O-])cc1[N+](=O)[O-],–,IC50 [1]: 53 µM; Relative Potency [2]: 0.4
NCCCNCCCCNCCCNC(=O)[C@H](Cc1ccc(O)cc1)NC(=O)CCCCCNC(=O)CCCCC1SCC2NC(=O)NC21 (some centres unmarked),–,IC50 (M) [1]: insol.
CCCCCCC(=O)N[C@@H](Cc1ccc(O)cc1)C(=O)NCCCNCCCCNCCCNC(=O)[C@H](Cc1ccc(O)cc1)NC(=O)CCCCCC,–,IC50 (M) [3]: insol.
CCCCCCCCCC(=O)N[C@@H](Cc1ccc(O)cc1)C(=O)NCCCNCCCCNCCCNC(=O)[C@H](Cc1ccc(O)cc1)NC(=O)CCCCCCCCC,–,IC50 (M) [3]: insol.
O=C(N[C@@H](Cc1ccc(O)cc1)C(=O)NCCCNCCCCNCCCNC(=O)[C@H](Cc1ccc(O)cc1)NC(=O)c1ccccc1)c1ccccc1,–,"IC50 [3]: 110 µM; Relative Potency (Table 6, relative to PhTX-343): 0.2"
CCCC(=O)NCCCNCCCCNCCCN,–,"IC50 (M) (Table 7, mono-acyl spermine analogues): agonist"
CCCCCCC(=O)NCCCNCCCCNCCCNC(=O)CCCCCC,–,"IC50 (M) (Table 7, bis-acyl spermine analogues): agonist"
"CCCC(=O)N[C@@H](Cc1ccc(O)cc1)C(=O)NCCCNCCCNCCCCN [Compound 3, PhTX-334]",–,"potency compared with natural PhTX-433 (in words): higher potency than the natural PhTX-433 toxin; physiological activity relative to that of PhTX-433, by locust muscle twitch inhibition concentration (PhTX-433 = 100%): 125%; effect on the neurally-evoked twitch contraction (in words) (toxin 1-10 μM): influenced the twitch contraction in the same qualitative fashion as PhTX-433"
"CCCC(=O)N[C@@H](Cc1ccc(O)cc1)C(=O)NCCCCNCCCN [Compound 4, PhTX-43]",reduced potency,–
"CCCC(=O)N[C@@H](Cc1ccc(O)cc1)C(=O)NCCCCN [Compound 5, PhTX-4]",reduced potency,–
"CCCC(=O)N[C@@H](Cc1ccc(O)cc1)C(N)=O [Compound 6, PhTX-0]",slightly more active than PhTX-4,–
CCCC(=O)N[C@@H](Cc1ccc(O)cc1)C(=O)NCCCCNCC(C)CNCCCN (some centres unmarked) [Compound 7],did not greatly alter potency,–
"CCCCC(CNCCCN)CNCCCCNC(=O)[C@H](Cc1ccc(O)cc1)NC(=O)CCC (some centres unmarked) [Compound 8, PhTX-(butyl)433]",increased potency by almost six-fold,–
CCCC(=O)N[C@@H](Cc1ccc(O)cc1)C(=O)NCCC[N+](C)(C)CCCC[N+](C)(C)CCC[N+](C)(C)C [Compound 9],reduced potency compared with PhTX-343,–
CCCC(=O)N[C@@H](Cc1ccccc1)C(=O)NCCCNCCCCNCCCN [Compound 10],increased potency about three-fold,"IC50 (Table 2, region B modifications, * SD < 20%): 6.7 µM; Relative Potency (Table 2, relative to PhTX-343 = 1.0): 3.4"
CCCC(=O)N[C@@H](Cc1ccc(OC(C)=O)cc1)C(=O)NCCCNCCCCNCCCN [Compound 11],unchanged potencies,–
"CCCC(=O)N[C@@H](Cc1ccc(OCc2ccccc2)cc1)C(=O)NCCCNCCCCNCCCN [Compound 12, N-butyryl-O-benzyl-L-tyrosine-spermineamide]",unchanged potencies,–
CCCC(=O)N[C@@H](CC(C)C)C(=O)NCCCNCCCCNCCCN [Compound 14],unchanged,–
CCCC(=O)N[C@@H](C)C(=O)NCCCNCCCCNCCCN [Compound 15],slightly reduced,–
"CCCC(=O)NCC(=O)NCCCNCCCCNCCCN [Compound 16, N-butyryl-L-glycine-spermine-amide]",greatly reduced activity,–
CCCC(=O)N[C@@H](Cc1c[nH]c2ccccc12)C(=O)NCCCNCCCCNCCCN [Compound 17],–,increase in potency compared with PhTX-343: 10 fold

Compound,potency compared with PhTX-343 or other analogues (in words),also measured
CC(=O)N[C@@H](Cc1ccc(O)cc1)C(=O)NCCCNCCCCNCCCN [Compound 18],slight but significant reduction in potency,–
CCCCCCC(=O)N[C@@H](Cc1ccc(O)cc1)C(=O)NCCCNCCCCNCCCN [Compound 19],successive increases in potency,–
"CCCCCCCCCC(=O)N[C@@H](Cc1ccc(O)cc1)C(=O)NCCCNCCCCNCCCN [Compound 20, C10-PhTX-343]",successive increases in potency,IC50 [1]: 1.4 µM; Relative Potency [2]: 16.0
C/C=C/C=C/C(=O)N[C@@H](Cc1ccc(O)cc1)C(=O)NCCCNCCCCNCCCN [Compound 21],very potent,–
NCCCNCCCCNCCCNC(=O)[C@H](Cc1ccc(O)cc1)NC(=O)C1CCCCC1 [Compound 22],equal to that of compound 19,–
NCCCNCCCCNCCCNC(=O)[C@H](Cc1ccc(O)cc1)NC(=O)c1ccccc1 [Compound 23],equipotent with the C10 analogue 20,–
NCCCNCCCCNCCCNC(=O)[C@H](Cc1ccc(O)cc1)NC(=O)Cc1ccccc1 [Compound 24],less potent than PhTX-343,–
NCCCNCCCCNCCCNC(=O)[C@H](Cc1ccc(O)cc1)NC(=O)/C=C/c1ccccc1 [Compound 25],greatly increased potency,–
[N-]=[N+]=Nc1ccc(C(=O)N[C@@H](Cc2ccc(O)cc2)C(=O)NCCCNCCCCNCCCN)cc1 [Compound 26],reasonably active,–
[N-]=[N+]=C(C(=O)NCCCC(=O)N[C@@H](Cc1ccc(O)cc1)C(=O)NCCCNCCCCNCCCN)C(F)(F)F [Compound 27],only weakly active,–
NCCCNCCCCNCCCNC(=O)[C@H](Cc1ccc(O)cc1)NC(=O)CCCCC1SCC2NC(=O)NC21 (some centres unmarked) [Compound 30],–,IC50 (M) [1]: insol.
CCCC(=O)N[C@@H](Cc1ccc(O)cc1)C(=O)NCCCNCCCCNCCCNC(C)=O [Compound 32],low potency,–
CCCC(=O)N[C@@H](Cc1ccc(O)cc1)C(=O)NCCCNCCCCNCCCNC(=O)CN [Compound 33],potency was reduced,–
CCCC(=O)N[C@@H](Cc1ccc(O)cc1)C(=O)NCCCNCCCCNCCCNC(=O)CCCN [Compound 34],potency was reduced,–
CCCC(=O)N[C@@H](Cc1ccc(O)cc1)C(=O)NCCCNCCCCNCCCNC(=O)C(N)CCCCN (some centres unmarked) [Compound 35],increased potency,–
"CCCC(=O)N[C@@H](Cc1ccc(O)cc1)C(=O)NCCCNCCCCNCCCNC(=O)[C@@H](N)CCCNC(=N)N [Compound 36, PhTX-343-L-arginine-amide]",increased potency,–
CCCC(=O)N[C@@H](Cc1ccc(O)cc1)C(=O)NCCCNCCCCNCCCNC(=O)C(N)CCCCNC(=O)C(N)CCCCN (some centres unmarked) [Compound 37],more active than compound 35,–
"CCCC(=O)N[C@@H](Cc1cc(I)c(O)c(I)c1)C(=O)NCCCNCCCCNCCCNC(=O)[C@@H](N)CCCCN [Compound 38, diiodo-PhTX-lysine]",more potent than PhTX-343,–
"CCCC(=O)N[C@@H](Cc1cc(I)c(O)c(I)c1)C(=O)NCCCNCCCCNCCCNC(=O)[C@@H](N)CCCNC(=N)N [Compound 39, diiodo-PhTX-arginine]",more potent than PhTX-343,–
"[N-]=[N+]=Nc1ccc(C(=O)N[C@@H](Cc2ccc(O)cc2)C(=O)NCCCNCCCCNCCCNC(=O)[C@@H](N)CCCCN)cc1 [Compound 40, N-(p-azidobenzamide)-L-tyrosyl-spermine-L-lysine-triamide]",–,"IC50 (Table 5, modifications to more than one region): 3.3 µM; Relative Potency (Table 5, relative to PhTX-343): 7"
